# Measurements reported in patent publication US20240408159A1, “PHYTOENE-CONTAINING OLEORESIN AND COMPOSITION” (LYCORED LTD., priority 2021, published 2024).
# Tests used:
# [1] = tested on: IL-1a; test: DPM-induced IL-1a production in EpiDerm 3D reconstructed skin model; type: cell-based, human; details: 48 hours, FIG. 6
# Description: The EpiDerm reconstructed skin system was obtained from the supplier MatTek (catalogue number EPI-200), and the tissue was handled according to the manufacturer's instructions. Briefly, upon delivery, the tissue was removed from its agar medium, washed and then left to recover overnight at 37 C, in a 5% CO2 environment. Then, the tissue was treated with topically-applied DPM (100 μg/ml in PBS, 10 μl/sample) in the presence or absence of the phytoene oleoresin diluted in jojoba wax at concentrations of 0.1, 1 and 2.5%, to a final volume of 30 μl. The following control groups were also set up: naïve tissue (untreated control), vehicle (jojoba wax), DPM-stimulated tissue and N-acetyl cysteine (NAC; positive control). Following addition of the test substances and controls, the reconstructed skin cultures were incubated for a further 48 hours at 37 C, in a 5% CO2 environment. At the end of the treatment period, the medium was collected from the tissue control implants and centrifuged at 250×g for 5 minutes, in order to remove particulate matter. […] IL-1a and IL-6 levels in the thawed medium were determined using commercial ELISA kits (ELISA Max Deluxe Set Human IL-1a catalogue number B265424; ELISA Max Deluxe Set Human IL-6 catalogue number B2852558; both supplied by Enco), according to the manufacturer's instructions.
# [2] = tested on: IL-8; test: Inhibition of UVB-induced IL-8 production in cultured HaCaT keratinocytes; type: cell-based, human; details: UVB lamp, test at final phytoene concentration 56 ppm, FIG. 5
# Description: Spontaneously transformed adult human keratinocytes of the HaCaT line were grown, maintained, plated and treated with control and test substances as described in Example 1, above. The cultured cells were irradiated using a UVB lamp in order to generate an inflammatory response in the cultured cells. The control substances used in this study were: • Vehicle control (“Control” in FIG. 5) • UVB exposure only (“Untreated”) • 4-Aminobenzoic acid (“PABA”; positive control) The test substance used was a dilution of the composition of the present invention (i.e., containing non-GMO, solvent free phytoene and jojoba oil), yielding a final phytoene concentration of 56 ppm. The IL-8 concentration of the culture cell supernatants was measured as described in Example 1, above.
Structure (SMILES),reduction in IL-1a production (positive control) [1],reduction in UVB-stimulated IL-8 production [2]
"CC(=O)N[C@@H](CS)C(=O)O [NAC, N-acetyl cysteine]",reduction,–
"Nc1ccc(C(=O)O)cc1 [PABA, 4-Aminobenzoic acid]",–,inhibition
